This is an account of results in PMC12036557, “Functional Imaging of CYP3A4 at Multiple Dimensions Using an AI‐Driven High Performance Fluorogenic Substrate” (Small (Weinheim an Der Bergstrasse, Germany), 2025).

One series concerns the target hCYP3A4 in HLMs (Homo sapiens, UniProt P08684). The series is described as follows: NFa-based screening and characterizing of hCYP3A4 inhibitors in HLMs. The following applies: inhibitor 1 μM, HLMs, NFa as fluorogenic substrate.
Series [1] concerns the target T1, CYP3A4 (Homo sapiens, UniProt P08684). The series is described as follows: in vitro. Conditions: pH 7.4.
In series [2] the target is T1, CYP3A4. Details: expressed in transfected cells; host or cells: CHO-3A4 stably transfected cell line. The following applies: previously reported fluorescent substrates; ref 7-10 of the supplement; cited from earlier work.
The target of series [3] is T1, CYP3A4. Kind of series: NFa-based screening and characterizing of hCYP3A4 inhibitors in HLMs. The following applies: human, human liver microsomes, pH 7.4, probe NFa (4-hydroxylation to 4-HNFa).

T1 sequence (P08684 whole entry): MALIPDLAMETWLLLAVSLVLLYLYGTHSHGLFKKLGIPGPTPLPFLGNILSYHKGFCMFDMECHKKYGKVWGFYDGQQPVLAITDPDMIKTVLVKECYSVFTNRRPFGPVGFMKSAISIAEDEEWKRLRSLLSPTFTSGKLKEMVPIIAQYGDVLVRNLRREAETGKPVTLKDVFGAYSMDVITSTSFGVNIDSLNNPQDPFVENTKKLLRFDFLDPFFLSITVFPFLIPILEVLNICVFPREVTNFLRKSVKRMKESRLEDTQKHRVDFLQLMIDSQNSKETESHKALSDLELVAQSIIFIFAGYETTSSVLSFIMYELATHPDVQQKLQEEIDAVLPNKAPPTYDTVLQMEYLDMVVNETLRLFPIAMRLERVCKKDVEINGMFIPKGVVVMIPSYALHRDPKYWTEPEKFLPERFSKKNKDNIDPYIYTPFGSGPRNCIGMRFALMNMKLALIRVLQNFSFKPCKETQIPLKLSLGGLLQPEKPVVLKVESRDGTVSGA
Chain of hCYP3A4 in HLMs (P08684 whole entry): as above

As to `CC(C)=CCCC(C)(O)[C@H]1CC[C@]2(C)[C@@H]1[C@H](O)C[C@@H]1[C@@]3(C)CC[C@H](O)C(C)(C)[C@@H]3CC[C@]12C` (stereo in doubt) [Protopanaxadiol], on hCYP3A4 in HLMs, the Residual activity is given as 69.66%. Consider `CCN1C[C@]2(COC)[C@H](O)C[C@H](OC)[C@@]34[C@@H]5C[C@@]6(O)[C@H](OC(=O)c7ccccc7)[C@@H]5[C@@](OC(C)=O)([C@@H]([C@H](OC)[C@H]23)[C@@H]14)[C@@H](O)[C@@H]6OC` [Aconitine], for which, at CYP3A4 [1], the activity at 30 min, 1 µM turned out to be 94.8%. `COc1ccc(-c2oc3c(CC=C(C)C)c(O)cc(O)c3c(=O)c2O)cc1` [Anhydroicaritin] registered a Residual activity on hCYP3A4 in HLMs of 87.82%. For `O=C1c2ccccc2C(=O)c2ccccc21` [Anthraquinone], at CYP3A4 [1], the activity at 30 min, 1 µM was 94.3%. Consider `O=C1c2c(O)cc(O)cc2O[C@H](c2ccc(O)cc2)[C@H]1O` [Aromadendrin], for which, at hCYP3A4 in HLMs, the Residual activity was found to be 91.70%.

With `O=c1cc(C(F)(F)F)c2ccc(OCc3ccccc3)cc2o1` [BFC, 7-benzyloxy-4-trifluoromethylcoumarin], the Specificity entry on CYP3A4 [2] is “CYP3A4 non-specific substrate”.

At hCYP3A4 in HLMs, `CC(C)=CCc1cc(C(=O)/C=C/c2ccc(O)cc2)c(O)cc1O` [Bavachalcone] showed a Residual activity of 90.43%.

`CC[C@@]1(O)C(=O)OCc2c1cc1n(c2=O)Cc2cc3ccccc3nc2-1` [Camptothecin]: the activity at 30 min, 1 µM at CYP3A4 [1] is 93.8%. For `COc1ccc2c(c[n+](C)c3c4cc5c(cc4ccc23)OCO5)c1OC` [Chelerythrine], the activity at 1 µM at CYP3A4 [1] turned out to be 89.6%. On the same count and under the same terms, to `c1c2c(cc3c1OCO3)-c1cc3ccc4c(c3c[n+]1CC2)OCO4` [Coptisine] belongs 77.9%.

Consider `O=c1cccc2n1C[C@@H]1CNC[C@H]2C1` [Cytisine], for which the activity at 1 µM on CYP3A4 [1] is 94.1%. Same read-out and setting: next, `COc1cc2c(cc1OC)C(=O)/C(=C/c1ccccc1)C2` [D1, (E)-2-benzylidene-5,6-dimethoxy-2,3-dihydro-1H-inden-1-one]: 88%. For the compound `O=C(/C=C/c1ccc2nccnc2c1)c1ccccc1O` [D15, (E)-1-(2-hydroxyphenyl)-3-(quinoxalin-6-yl)prop-2-en-1-one], at CYP3A4 [3], the activity at 30 min, 1 µM is 64.5%. Turning to `COc1cccc(O)c1C(=O)/C=C/c1ccc2nc(Cl)ccc2c1` [D16, (E)-3-(2-chloroquinolin-6-yl)-1-(2-hydroxy-6-methoxyphenyl)prop-2-en-1-one], the activity at 30 min, 1 µM at CYP3A4 [3] was determined as 100%. Still for that read-out and setting: to `COc1ccc(C(=O)/C=C/c2ccc3nc(Cl)ccc3c2)c(O)c1` [D17, (E)-3-(2-chloroquinolin-6-yl)-1-(2-hydroxy-4-methoxyphenyl)prop-2-en-1-one] belongs 83.6%; to `COc1cc(O)c(C(=O)/C=C/c2ccc3nccnc3c2)c(OC)c1` [D18, (E)-1-(2-hydroxy-4,6-dimethoxyphenyl)-3-(quinoxalin-6-yl)prop-2-en-1-one], 54%. Turning to `O=c1c(-c2ccc(O)cc2)coc2cc(O)ccc12` [Daidzein], on CYP3A4 [1], the activity at 30 min, 1 µM came out at 97.4%. Consider `COc1cc2c(cc1OC)[C@@H](Cc1ccc(Oc3cc(C[C@@H]4c5cc(OC)c(OC)cc5CCN4C)ccc3O)cc1)N(C)CC2` [Dauricine], for which the activity at 30 min, 1 µM at CYP3A4 [3] is 92.8%. Turning to `COc1cc2c(cc1O)[C@@H](Cc1ccc(O)c(Oc3ccc(C[C@@H]4c5cc(OC)c(OC)cc5CCN4C)cc3)c1)N(C)CC2` [Daurisoline], the Residual activity at hCYP3A4 in HLMs is 91.85%.

Turning to `COc1cc(O)ccc1/C=C/C(=O)c1ccc(O)cc1` [Echinatin], on CYP3A4 [3], the activity at 30 min, 1 µM came out at 47.6%.

Compound `COc1cc2c(cc1OC)-c1cc3ccc4c(c3c[n+]1CC2)OCO4` [Epiberberine] yielded a Residual activity on hCYP3A4 in HLMs of 89.82%. In the case of `Cc1c(O)c(C)c2c(c1O)C(=O)C[C@@H](c1ccc(O)cc1)O2` [Farrerol], the activity at 30 min, 1 µM on CYP3A4 [3] was found to be 73.5%. Consider `COc1ccc(-c2coc3cc(O)ccc3c2=O)cc1` [Formononetin], for which, at CYP3A4 [3], the activity at 30 min, 1 µM was determined as 98.9%. The same measure, in the same setting: to `O=c1c(O)c(-c2ccccc2)oc2cc(O)cc(O)c12` [Galangin] belongs 94%. Same read-out and setting: to `COc1cc2c(=O)c(-c3ccc(O)cc3)coc2cc1O` [Glycitein] belongs 104%; to `CC1(C)[C@@H](O)CC[C@]2(C)[C@H]3C(=O)C=C4[C@@H]5C[C@@](C)(C(=O)O)CC[C@]5(C)CC[C@@]4(C)[C@]3(C)CC[C@@H]12` [Glycyrrhetinic acid], 66.9%. In the case of `COc1ccc2c(c1)[nH]c1c(C)nccc12` [Harmine], at CYP3A4 [1], the activity at 1 µM worked out at 101%. For the compound `O=c1c(O)c(-c2ccc(O)cc2)oc2c(O)c(O)cc(O)c12` [Herbacetin], the activity at 30 min, 1 µM at CYP3A4 [3] amounted to 91.1%. For `COc1ccc([C@@H]2CC(=O)c3c(O)cc(O)cc3O2)cc1O` [Hesperetin], on CYP3A4 [1], the activity at 30 min, 1 µM stood at 96.8%. `CN1[C@@H]2CC[C@H]1C[C@@H](OC(=O)[C@H](CO)c1ccccc1)C2` [Hyoscyamine]: the activity at 1 µM at CYP3A4 [1] is 98%. Still for that read-out and setting: next, `COC[C@@]12CC[C@H](OC)[C@]34C(C([C@H](OC)[C@H]13)[C@]1(OC(C)=O)[C@H]3[C@@H](OC(=O)c5ccccc5)[C@](O)(C[C@H]34)[C@@H](OC)[C@@H]1O)N(C)C2` [Hypaconitine]: 94.9%. On to `COc1ccc(-c2oc3c(CC=C(C)C)c(O)cc(O)c3c(=O)c2O)cc1` [Icaritin], for which, on CYP3A4 [1], the activity at 30 min, 1 µM is 90.1%. As for `CC(C)=CCc1c(O)ccc(C(=O)/C=C/c2ccc(O)cc2)c1O` [Isobavachalcone], the activity at 30 min, 1 µM at CYP3A4 [3] was determined as 54.2%. Still for that read-out and setting: to `O=c1c(O)c(-c2ccc(O)cc2)oc2cc(O)cc(O)c12` [Kaempferol] belongs 67.9%.

On hCYP3A4 in HLMs, `CCN1C[C@]2(OC(=O)c3ccccc3NC(C)=O)CC[C@H](OC)[C@@]34[C@@H]2C[C@@H]([C@@H]13)[C@@]1(O)C[C@H](OC)[C@H]2C[C@@H]4[C@]1(O)[C@H]2OC` [Lappaconitine] showed a Residual activity of 94.46%. Take `C=CC(C)(C)c1cc(/C=C/C(=O)c2ccc(O)cc2)c(OC)cc1O` [Licochalcone A]: the Residual activity on hCYP3A4 in HLMs stood at 39.20%.

At hCYP3A4 in HLMs, `O=C1C[C@@H](c2ccc(O)cc2)Oc2cc(O)ccc21` [Liquiritigenin] showed a Residual activity of 90.60%.

As to `O[C@H]1[C@H]2c3cc4c(cc3CN3CCC(=C[C@@H]1O)[C@H]23)OCO4` [Lycorine], the activity at 1 µM at CYP3A4 [1] was 92.1%.

`COc1ccc(-c2cc(=O)c3c(O)c(OC)c(O)c(OC)c3o2)cc1` [Lysionotin] displayed a Residual activity at hCYP3A4 in HLMs of 96.88%. `C=CCc1ccc(O)c(-c2cc(CC=C)ccc2O)c1` [Magnolol]: the activity at 1 µM on CYP3A4 [1] is 106%. On to `CC(C)=CCc1cc(-c2coc3cc(O)ccc3c2=O)ccc1O` [Neobavaisoflavone], for which the activity at 30 min, 1 µM on CYP3A4 [3] worked out at 87.9%.

On to `COc1ccc(-c2cc(=O)c3c(OC)c(OC)c(OC)c(OC)c3o2)cc1OC` [Nobiletin], for which the activity at 30 min, 1 µM at CYP3A4 [1] is 102%. For the compound `O=c1cc(-c2ccccc2)oc2c(O)c(O)cc(O)c12` [Norwogonin], at CYP3A4 [3], the activity at 30 min, 1 µM turned out to be 85.3%. Turning to `CC1(C)CC[C@]2(C(=O)O)CC[C@]3(C)C(=CC[C@@H]4[C@@]5(C)CC[C@H](O)C(C)(C)[C@@H]5CC[C@]43C)[C@@H]2C1` [Oleanolic acid], the activity at 1 µM at CYP3A4 [1] was found to be 70.2%.

At hCYP3A4 in HLMs, `COc1cc2c(=O)n(C)c3c4cc5c(cc4ccc3c2cc1OC)OCO5` [Oxynitidine] registered a Residual activity of 89.98%. Consider `O=C1C=CC[C@@H]2[C@H]3CCC[N+]4([O-])CCC[C@@H](CN12)[C@@H]34` (stereo partly shown) [Oxysophocarpine], for which the activity at 1 µM on CYP3A4 [1] was found to be 96.1%. For `COc1ccc(-c2cc(=O)c3c(O)c(OC)c(O)cc3o2)cc1` [Pectolinarigenin], the activity at 30 min, 1 µM at CYP3A4 [1] turned out to be 98%. With `O=C(CCc1ccc(O)cc1)c1c(O)cc(O)cc1O` [Phloretin], the activity at 30 min, 1 µM on CYP3A4 [3] was found to be 97.3%. For `COc1c(OC)c2occc2c2oc(=O)ccc12` [Pimpinellin], the activity at 30 min, 1 µM at CYP3A4 [3] turned out to be 103%. As for `O=C(O)c1ccc(O)c(O)c1` [Protocatechuic acid], the activity at 30 min, 1 µM at CYP3A4 [3] was determined as 109%. Take `CC(C)=CCC[C@](C)(O)[C@H]1CC[C@]2(C)[C@@H]1[C@H](O)C[C@@H]1[C@@]3(C)CC[C@H](O)C(C)(C)[C@@H]3[C@@H](O)C[C@]12C` [Protopanaxatriol]: at hCYP3A4 in HLMs, the Residual activity is listed as 43.85%.

Turning to `Oc1ccc(/C=C/c2cc(O)cc(O)c2)cc1` [Resveratrol], the activity at 30 min, 1 µM on CYP3A4 [3] turned out to be 72.1%. Turning to `CN1[C@@H]2C[C@@H](OC(=O)[C@H](CO)c3ccccc3)C[C@H]1[C@@H]1O[C@@H]12` [Scopolamine], the activity at 1 µM at CYP3A4 [1] was found to be 98.8%. Consider `COc1cc(C2Oc3cc([C@H]4Oc5cc(O)cc(O)c5C(=O)[C@@H]4O)ccc3OC2CO)ccc1O` (stereo partly shown) [Silybin], for which the activity at 30 min, 1 µM at CYP3A4 [1] turned out to be 89%.

On to `C=C1[C@H]2C[C@@]3([C@@H]1O)[C@@H](CC2=O)[C@]12[C@@H]4C[C@H]3[C@H]1N(CC)C[C@]4(C)CC[C@@H]2O` [Songorine], for which the activity at 1 µM at CYP3A4 [1] was 104%. On to `O=C1C=CC[C@@H]2[C@H]3CCCN4CCC[C@@H](CN12)[C@@H]34` [Sophocarpine], for which the activity at 30 min, 1 µM on CYP3A4 [1] amounted to 94.1%. On to `O=C1C[C@@H]2OCC=C3CN4CC[C@]56c7ccccc7N1[C@H]5[C@H]2[C@H]3C[C@H]46` [Strychnine], for which the activity at 30 min, 1 µM on CYP3A4 [1] was found to be 96.3%.

Consider `COc1c(O)cc2occ(-c3ccc(O)cc3)c(=O)c2c1O` [Tectorigenin], for which the activity at 30 min, 1 µM on CYP3A4 [3] came to 95.5%.

For `COc1ccc2cc1Oc1ccc(cc1)C[C@H]1c3cc(c(OC)cc3CCN1C)Oc1c(OC)c(OC)cc3c1[C@H](C2)N(C)CC3` [Tetrandrine], the activity at 30 min, 1 µM on CYP3A4 [1] amounted to 95.2%. In the case of `C[C@H]1[C@H](C)CC[C@]2(C(=O)O)CC[C@]3(C)C(=CC[C@@H]4[C@@]5(C)CC[C@H](O)C(C)(C)[C@@H]5CC[C@]43C)[C@H]12` [Ursolic acid], the activity at 30 min, 1 µM on CYP3A4 [3] stood at 99.3%.

As for `COc1cc(O)c(CC=C(C)C)c(O)c1C(=O)/C=C/c1ccc(O)cc1` [Xanthohumol], on CYP3A4 [3], the activity at 30 min, 1 µM is 59.9%.
